Measurements: the NIST ThermoML archive (doi:10.1016/j.jct.2006.08.009)

Experiment: mn = molality of the nth substance listed, in mol/kg
Details: 350 kPa, Liquid; for apparent molar heat capacity: Extra sensitive DSC

OC[C@@H](O)[C@@H](O)[C@H](O)[C@@H](O)CO [D-sorbitol] + O
Details | apparent molar heat capacity [J/K/mol] | mass density [kg/m3]
278.15 K, m1 = 0.02 | 373 | 1001.46
278.15 K, m1 = 0.04 | 346.7 | 1002.79
278.15 K, m1 = 0.069 | 355.4 | 1005.09
278.15 K, m1 = 0.1997 | 360.1 | 1013.23
278.15 K, m1 = 0.4003 | 363.3 | 1025.52
278.15 K, m1 = 0.6991 | 367.7 | 1042.94
278.15 K, m1 = 0.9784 | 372.3 | 1057.65
278.15 K, m1 = 1.501 | 372.1 | 1082.71
278.15 K, m1 = 2.004 | 383.7 | 1104.6
283.15 K, m1 = 0.02 | 391 | 1001.14
283.15 K, m1 = 0.04 | 366.7 | 1002.47
283.15 K, m1 = 0.069 | 374.6 | 1004.71
283.15 K, m1 = 0.1997 | 378.8 | 1012.74
283.15 K, m1 = 0.4003 | 381.8 | 1024.88
283.15 K, m1 = 0.6991 | 385.6 | 1042.11
283.15 K, m1 = 0.9784 | 389.4 | 1056.73
283.15 K, m1 = 1.501 | 389.4 | 1081.57
283.15 K, m1 = 2.004 | 399.4 | 1103.19
288.15 K, m1 = 0.02 | 406 | 1000.48
288.15 K, m1 = 0.04 | 382.5 | 1001.81
288.15 K, m1 = 0.069 | 389.8 | 1003.99
288.15 K, m1 = 0.1997 | 393.7 | 1011.95
288.15 K, m1 = 0.4003 | 396.3 | 1023.96
288.15 K, m1 = 0.6991 | 399.5 | 1041
288.15 K, m1 = 0.9784 | 402.8 | 1055.55
288.15 K, m1 = 1.501 | 402 | 1080.23
288.15 K, m1 = 2.004 | 411.5 | 1101.6
293.15 K, m1 = 0.02 | 418 | –
293.15 K, m1 = 0.04 | 395.4 | –
293.15 K, m1 = 0.069 | 402.5 | –
293.15 K, m1 = 0.1997 | 406.4 | –
293.15 K, m1 = 0.4003 | 408.9 | –
293.15 K, m1 = 0.6991 | 411.6 | –
293.15 K, m1 = 0.9784 | 414.4 | –
293.15 K, m1 = 1.501 | 413.2 | –
293.15 K, m1 = 2.004 | 422 | –
298.15 K, m1 = 0.02 | 429 | 998.4
298.15 K, m1 = 0.04 | 406.9 | 999.67
298.15 K, m1 = 0.069 | 413.8 | 1001.72
298.15 K, m1 = 0.1997 | 417.4 | 1009.58
298.15 K, m1 = 0.4003 | 419.5 | 1021.39
298.15 K, m1 = 0.6991 | 421.9 | 1038.13
298.15 K, m1 = 0.9784 | 424.4 | 1052.5
298.15 K, m1 = 1.501 | 422.7 | 1076.86
298.15 K, m1 = 2.004 | 430.9 | 1097.81
303.15 K, m1 = 0.02 | 439 | –
303.15 K, m1 = 0.04 | 417.1 | –
303.15 K, m1 = 0.069 | 423.6 | –
303.15 K, m1 = 0.1997 | 426.9 | –
303.15 K, m1 = 0.4003 | 428.9 | –
303.15 K, m1 = 0.6991 | 430.9 | –
303.15 K, m1 = 0.9784 | 433.1 | –
303.15 K, m1 = 1.501 | 431.1 | –
303.15 K, m1 = 2.004 | 438.8 | –
308.15 K, m1 = 0.02 | 447 | 995.35
308.15 K, m1 = 0.04 | 425.7 | 996.6
308.15 K, m1 = 0.069 | 432 | 998.45
308.15 K, m1 = 0.1997 | 435.3 | 1006.4
308.15 K, m1 = 0.4003 | 437 | 1018.06
308.15 K, m1 = 0.6991 | 438.8 | 1034.6
308.15 K, m1 = 0.9784 | 440.7 | 1048.63
308.15 K, m1 = 1.501 | 438.4 | 1072.81
308.15 K, m1 = 2.004 | 445.8 | 1093.63
313.15 K, m1 = 0.02 | 455 | –
313.15 K, m1 = 0.04 | 432.5 | –
313.15 K, m1 = 0.069 | 439.5 | –
313.15 K, m1 = 0.1997 | 442.6 | –
313.15 K, m1 = 0.4003 | 444.2 | –
313.15 K, m1 = 0.6991 | 445.8 | –
313.15 K, m1 = 0.9784 | 447.5 | –
313.15 K, m1 = 1.501 | 445.1 | –
313.15 K, m1 = 2.004 | 452.2 | –
318.15 K, m1 = 0.02 | 462 | 991.53
318.15 K, m1 = 0.04 | 439.7 | 992.78
318.15 K, m1 = 0.069 | 446.1 | 994.56
318.15 K, m1 = 0.1997 | 449.1 | 1002.41
318.15 K, m1 = 0.4003 | 450.6 | 1013.97
318.15 K, m1 = 0.6991 | 452 | 1030.3
318.15 K, m1 = 0.9784 | 453.6 | 1044.19
318.15 K, m1 = 1.501 | 451 | 1068.13
318.15 K, m1 = 2.004 | 457.8 | 1088.73
323.15 K, m1 = 0.02 | 468 | –
323.15 K, m1 = 0.04 | 446 | –
323.15 K, m1 = 0.069 | 451.9 | –
323.15 K, m1 = 0.1997 | 455 | –
323.15 K, m1 = 0.4003 | 456.3 | –
323.15 K, m1 = 0.6991 | 457.6 | –
323.15 K, m1 = 0.9784 | 459 | –
323.15 K, m1 = 1.501 | 456.5 | –
323.15 K, m1 = 2.004 | 463 | –
328.15 K, m1 = 0.02 | 473 | 987.02
328.15 K, m1 = 0.04 | 450.8 | 988.24
328.15 K, m1 = 0.069 | 457.2 | 989.98
328.15 K, m1 = 0.1997 | 460.2 | 997.75
328.15 K, m1 = 0.4003 | 461.5 | 1009.18
328.15 K, m1 = 0.6991 | 462.7 | 1025.35
328.15 K, m1 = 0.9784 | 464 | 1039.16
328.15 K, m1 = 1.501 | 461.4 | 1062.99
328.15 K, m1 = 2.004 | 467.6 | 1083.37
333.15 K, m1 = 0.02 | 478 | –
333.15 K, m1 = 0.04 | 456.4 | –
333.15 K, m1 = 0.069 | 462 | –
333.15 K, m1 = 0.1997 | 464.9 | –
333.15 K, m1 = 0.4003 | 466.2 | –
333.15 K, m1 = 0.6991 | 467.3 | –
333.15 K, m1 = 0.9784 | 468.5 | –
333.15 K, m1 = 1.501 | 465.9 | –
333.15 K, m1 = 2.004 | 471.9 | –
338.15 K, m1 = 0.02 | 482 | 981.86
338.15 K, m1 = 0.04 | 460.5 | 983.14
338.15 K, m1 = 0.069 | 466.2 | 984.86
338.15 K, m1 = 0.1997 | 469.2 | 992.6
338.15 K, m1 = 0.4003 | 470.5 | 1003.94
338.15 K, m1 = 0.6991 | 471.5 | 1020.02
338.15 K, m1 = 0.9784 | 472.6 | 1033.71
338.15 K, m1 = 1.501 | 470.1 | 1057.29
338.15 K, m1 = 2.004 | 475.8 | 1077.49
343.15 K, m1 = 0.02 | 486 | –
343.15 K, m1 = 0.04 | 464 | –
343.15 K, m1 = 0.069 | 470 | –
343.15 K, m1 = 0.1997 | 473 | –
343.15 K, m1 = 0.4003 | 474.3 | –
343.15 K, m1 = 0.6991 | 475.3 | –
343.15 K, m1 = 0.9784 | 476.3 | –
343.15 K, m1 = 1.501 | 473.9 | –
343.15 K, m1 = 2.004 | 479.3 | –
348.15 K, m1 = 0.02 | 489 | 976.44
348.15 K, m1 = 0.04 | 467.7 | 977.62
348.15 K, m1 = 0.069 | 473.3 | 979.35
348.15 K, m1 = 0.1997 | 476.4 | 987.03
348.15 K, m1 = 0.4003 | 477.7 | 998.25
348.15 K, m1 = 0.6991 | 478.6 | 1014.26
348.15 K, m1 = 0.9784 | 479.7 | 1027.75
348.15 K, m1 = 1.501 | 477.3 | 1051.07
348.15 K, m1 = 2.004 | 482.4 | 1071.23
353.15 K, m1 = 0.02 | 492 | –
353.15 K, m1 = 0.04 | 472.1 | –
353.15 K, m1 = 0.069 | 476.2 | –
353.15 K, m1 = 0.1997 | 479.4 | –
353.15 K, m1 = 0.4003 | 480.6 | –
353.15 K, m1 = 0.6991 | 481.6 | –
353.15 K, m1 = 0.9784 | 482.6 | –
353.15 K, m1 = 1.501 | 480.4 | –
353.15 K, m1 = 2.004 | 485.2 | –
358.15 K, m1 = 0.02 | 494 | 969.9
358.15 K, m1 = 0.04 | 480.2 | 971.49
358.15 K, m1 = 0.069 | 478.7 | 972.88
358.15 K, m1 = 0.1997 | 481.7 | 980.97
358.15 K, m1 = 0.4003 | 483 | 991.75
358.15 K, m1 = 0.6991 | 483.9 | 1007.73
358.15 K, m1 = 0.9784 | 484.8 | 1021.37
358.15 K, m1 = 1.501 | 483.2 | 1044.38
358.15 K, m1 = 2.004 | 487.4 | 1064.53
363.15 K, m1 = 0.02 | 495 | –
363.15 K, m1 = 0.04 | 508 | –
363.15 K, m1 = 0.069 | 479.6 | –
363.15 K, m1 = 0.1997 | 482.5 | –
363.15 K, m1 = 0.4003 | 483.7 | –
363.15 K, m1 = 0.6991 | 484.6 | –
363.15 K, m1 = 0.9784 | 485.5 | –
363.15 K, m1 = 1.501 | 485.7 | –
363.15 K, m1 = 2.004 | 487.9 | –
368.15 K, m1 = 0.02 | – | 963.45
368.15 K, m1 = 0.04 | – | 964.68
368.15 K, m1 = 0.069 | – | 966.4
368.15 K, m1 = 0.1997 | – | 974.03
368.15 K, m1 = 0.4003 | – | 985.25
368.15 K, m1 = 0.6991 | – | 1001.2
368.15 K, m1 = 0.9784 | – | 1014.47
368.15 K, m1 = 1.501 | – | 1037.56
368.15 K, m1 = 2.004 | – | 1057.91
